The target in data set [1] is T1, HO-1 (Rattus norvegicus, UniProt P06762).
T1 construct: selected to use the most native (i.e., closest to in vivo) forms of HO-1 and HO-2; from tissue; host or cells: rat spleen (male Sprague-Dawley), microsomal fraction
T1 sequence (P06762 1-289): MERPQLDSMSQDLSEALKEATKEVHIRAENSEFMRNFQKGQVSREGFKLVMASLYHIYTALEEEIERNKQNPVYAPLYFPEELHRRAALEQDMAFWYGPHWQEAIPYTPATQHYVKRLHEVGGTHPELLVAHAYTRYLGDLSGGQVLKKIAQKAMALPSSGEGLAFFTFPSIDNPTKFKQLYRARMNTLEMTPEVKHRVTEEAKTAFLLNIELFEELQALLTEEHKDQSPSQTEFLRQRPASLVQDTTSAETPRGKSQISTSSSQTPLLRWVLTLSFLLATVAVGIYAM
As to the kind of experiment: HO-1 enzymatic activity, rat spleen microsomal fraction (bilirubin formation). Type of data set: biochemical. Particulars: for IC50: rat spleen microsomal fraction, mean of triplicate ± SD; for SI (HO-2/HO-1): ratio of HO-2 and HO-1 IC50. On the procedure: (§1) HO-1 and HO-2 were obtained, respectively, from the rat spleen and brain as the microsomal fraction prepared by differential centrifugation; the dominance of HO-1 protein in the rat spleen and HO-2 in the rat brain has been well documented.[24] These particular microsomal preparations were selected to use the most native (i.e., closest to in vivo) forms of HO-1 and HO-2. Spleen and brain (Sprague-Dawley rats) microsomal fractions were prepared according to the procedure outlined by Ryter et al.[2] The experiments reported in the present paper complied with the current Italian law and met the guidelines of the Institutional Animal Care and Use Committee of the Ministry of Health (Directorate General for Animal Health and Veterinary Medicines, Italy) “Dosing of enzymatic activities in rat microsomes” (2018–2022), project code 02769.N.VLY. The experiments were performed in male Sprague-Dawley albino rats (150 g body weight and age 45 d). They had free access to water and were kept at room temperature with a natural photoperiod (12 h light–12 h dark cycle). For measuring HO-1 and HO-2 activities, each rat was sacrificed and their spleen and brain were excised and weighed. A homogenate (15%, w/v) of spleens and brains pooled from four rats was prepared in ice-cold HO-homogenizing buffer (50 mM Tris buffer, pH 7.4, containing 0.25 M sucrose) using a Potter–Elvehjem homogenizing system with a Teflon pestle. The microsomal fraction of rat spleen and brain homogenate was obtained by centrifugation at 10 000g for 20 min at 4 °C, followed by centrifugation of the supernatant at 100 000g for 60 min at 4 °C. The 100 000g pellet (microsomes) was resuspended in 100 mM of potassium phosphate buffer, pH 7.8, containing 2 mM MgCl2 with a Potter–Elvehjem homogenizing system. The rat spleen and brain microsomal fractions were divided into equal aliquots, placed into microcentrifuge tubes, and stored at −80 °C for up to 2 months.
(§2) Liver cytosol has been used as a source of biliverdin reductase. Rat liver was perfused through the hepatic portal vein with cold 0.9% NaCl; then, it was cut and flushed with 2 × 20 mL of ice-cold PBS to remove all of the blood. Liver tissue was homogenized in 3 volumes of a solution containing 1.15% KCl w/v and Tris buffer 20 mM, pH 7.8 on ice. Homogenates were centrifuged at 10 000g for 20 min at 4 °C. The supernatant was decanted and centrifuged at 100 000g for 1 h at 4 °C to sediment the microsomes. The 100 000g supernatant was saved and then stored in small amounts at −80 °C after its protein concentration was measured.
(§3) The HO-1 and HO-2 activities were determined by measuring the bilirubin formation using the difference in absorbance at 464–530 nm, as described by Ryter et al.[2] Reaction mixtures (500 μL) consisted of 20 mM of Tris–HCl, pH 7.4, (1 mg/mL) microsomal extract, 0.5–2 mg/mL of biliverdin reductase, 1 mM of NADPH, 2 mM of glucose 6-phosphate (G6P), 1 U of G6P dehydrogenase, 25 μM of hemin, and 10 μL of DMSO (or the same volume of DMSO solution of test compounds to a final concentration of 100, 10, and 1 μM). Incubations were carried out for 60 min at 37 °C in a circulating water bath in the dark. Reactions were stopped by adding the same volume of chloroform. After recovering the chloroform phase, the amount of bilirubin formed was measured with a double-beam spectrophotometer as OD464–530 nm (extinction coefficient, 40 mM/cm^–1 for bilirubin). One unit of the enzyme was defined as the amount of enzyme catalyzing the formation of 1 nmol of bilirubin/mg protein/h.

Data set [2] deals with T2, HO-2 (Rattus norvegicus, UniProt P23711).
T2 construct: selected to use the most native (i.e., closest to in vivo) forms of HO-1 and HO-2; from tissue; host or cells: rat brain (male Sprague-Dawley), microsomal fraction
T2 sequence (P23711 1-315): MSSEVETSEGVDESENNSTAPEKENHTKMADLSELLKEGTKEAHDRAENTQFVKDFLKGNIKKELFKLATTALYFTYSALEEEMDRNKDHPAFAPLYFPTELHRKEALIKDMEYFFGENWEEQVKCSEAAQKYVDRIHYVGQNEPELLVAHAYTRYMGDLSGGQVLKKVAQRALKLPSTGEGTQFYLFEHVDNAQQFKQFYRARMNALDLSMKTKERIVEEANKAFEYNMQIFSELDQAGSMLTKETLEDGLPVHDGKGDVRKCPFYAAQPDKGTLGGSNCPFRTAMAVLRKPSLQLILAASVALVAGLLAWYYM
As to the kind of experiment: HO-2 enzymatic activity, rat brain microsomal fraction (bilirubin formation). To be noted: mean of triplicate ± SD. Type of data set: biochemical. On the procedure: as §1, §2, §3

The test system of data set [3] is U87MG cells. As to the kind of experiment: MTT cell viability assay, U87MG. Type of data set: cell-based, human. To be noted: 48 h. On the procedure: (§4) Experiments were performed on human GBM cell lines U87MG (ATCCC number #HTB-14) and A172 (ATCCC #CRL-1620) on DU145 (ATCC HTB-81) and human lung adenocarcinoma A549 (ATCC CCL-185-LUC2). All cell lines were obtained from the American Type Culture Collection (ATCC, Rockville, MD). Cells were grown in Dulbecco’s modified Eagle’s medium (DMEM) supplemented with 10% of heat-inactivated fetal bovine serum (FBS), 100 U/mL of penicillin, and 100 μg/mL of streptomycin (Sigma-Aldrich, Steinheim, Germany). Cells were incubated at 37 °C in a humidified atmosphere with 5% CO2.
(§5) The effect of selected compounds 7i and 7l–p on cell viability was assessed by performing an MTT assay. Cells were seeded into 96-well plates at a density of 7 × 10^3 cells/well in 100 μL of culture medium. After 24 h, cells were treated with selected compounds at three different concentrations (1 μM, 10 μM, and 50 μM) for 48 h. Following treatments, 0.5 mg/mL of 3-[4,5-dimethylthiazol-2-yl]-2,5-diphenyltetrazolium bromide (MTT) (Sigma-Aldrich) was added to each well and incubated for 4 h at 37 °C. Finally, dimethyl-sulfoxide (DMSO) was used to dissolve formazan salts, and absorbance was measured at 570 nm in a microplate reader (Biotek Synergy-HT). Eight replicate wells were used for each group.

Data set [4] has as its system A172 cells. As to the kind of experiment: MTT cell viability assay, A172. To be noted: 48 h. Type of data set: cell-based, human. On the procedure:
as §4, §5

The mark [5] stands for this setting: all tested concentrations (1, 10, 50 μM).
[6] abbreviates: at both concentrations 1 and 10 μM.

For `CN(C(=O)Cn1ccnc1)C(c1ccccc1)c1ccc(Cl)cc1` (stereo not drawn) [7l, N-((4-Chlorophenyl)(phenyl)methyl)-2-(1H-imidazol-1-yl)-N-methylacetamide], in data set [1], the “HO-1 vs HO-2 selectivity (in words)” value is “superimposable HO-1 and HO-2 IC50 values”; the midpoint of inhibition, the IC50, lay at 0.95 ± 0.04 µM; the “SI (HO-2/HO-1)” value came out at 1.3. This molecule gave a concentration for half-maximal inhibition (IC50) in data set [2] of 1.2 ± 0.07 µM. Moreover, the cell viability reduction entry in data set [3] (at all of the tested concentrations (1, 10, 50 μM)) is listed as “more than 60%”. In addition, in data set [4] (setting [5]), the “cell viability reduction (in words)” value is reported as “remarkable reduction of cell viability”.
Take `CN(C(=O)Cn1ccnc1)C(c1ccccc1)c1ccc(I)cc1` (stereo not drawn) [7n, 2-(1H-Imidazol-1-yl)-N-((4-iodophenyl)(phenyl)methyl)-N-methylacetamide]: the melting point was in the range of 69 to 71 °C. Further, in data set [1], the “fold more selective for the inducible isoform (HO-1 over HO-2)” value is “about 48 fold”, half-maximal inhibition (IC50) required 0.95 ± 0.09 µM and the “SI (HO-2/HO-1)” value worked out at 48.3. Besides, the IC50 in data set [2] is 45.9 ± 1.67 µM. Moreover, the cell viability reduction result in data set [3] (setting [6]) is “more than 30%”. The “cell viability reduction (in words)” value in data set [4] (10 μM) is listed as “milder activity”. In addition, the “cell viability reduction (in words)” value in data set [4] (50 μM) is “only at 50 μM”.
Take `CN(C(=O)Cn1ccnc1)C(c1ccccc1)c1ccc(OCc2ccccc2)cc1` (stereo not drawn) [7o, N-((4-(Benzyloxy)phenyl)(phenyl)methyl)-2-(1H-imidazol-1-yl)-N-methylacetamide]: the melting point lay within 119 to 121 °C. Further, in data set [1], the “fold more selective for the inducible isoform (HO-1 over HO-2)” value was determined as 9 fold, the IC50 stood at 1.2 ± 0.11 µM and the “SI (HO-2/HO-1)” value is 9.3. This molecule also gave a half-inhibitory concentration (IC50) in data set [2] of 11.2 ± 0.18 µM. Moreover, the cell viability reduction entry in data set [3] (setting [6]) is reported as “around 20%”. Also, the “cell viability reduction (in words)” value in data set [4] (setting [5]) is given as “remarkable reduction of cell viability”.
